Experimental findings from publication PMC11249953, “c-KIT inhibitors reduce pathology and improve behavior in the Tg(SwDI) model of Alzheimer’s disease” (Life Science Alliance, 2024) are described below.

For one experiment, the target named is T1, MTOR (Homo sapiens, UniProt P42345).
T1 construct: DNA label for qPCR read-out (T7 phage fusion or DNA tag); purchased Eurofins DiscoverX Corporation; host or cells: T7 phage in E. coli (BL21-derived) or HEK-293
As to the kind of experiment: KINOMEscan competition binding, MTOR. The conditions noted are these: 10 µM compound; for remaining binding at 10 µM: lower = stronger binding, read-out: MTOR %Ctrl @ 10000nM (POC). How it is done: The KINOMEscan screening platform (Eurofins DiscoverX Corporation) was performed using active site-directed competition binding assay to quantitatively measure interactions between BK40143 and BK40197 and more than 450 human kinases and disease relevant mutant variants. […] Screening “hits” are identified by measuring the amount of kinase captured in test (BK40143 and BK40197) versus control samples by using a quantitative and ultra-sensitive qRT-PCR method that detects the associated DNA label. BK40143 and BK40197 were screened at 10 µM concentration, and results for primary screen binding interactions were reported as “% Ctrl” (POC), where lower numbers indicate stronger hits and calculated as follows: [test compound signal−positive control signal/negative control signal−positive control signal]×100
negative control = DMSO (100% Ctrl)
positive control = control compound (0% Ctrl)
Based on screening data from of profiled compounds, a proportional relationship between primary screening results and corresponding compound/target affinities can be described as binding constants (Kd values) for the indicated ranges of POC values with tighter binding (higher affinity) interactions associated with lower POC values and weaker binding (lower affinity) associated with higher POC values. Briefly, kinase-tagged T7 phage strains were grown in parallel in 24-well blocks in an E. coli host derived from the BL21 strain. E. coli were grown to log-phase and infected with T7 phage from a frozen stock (multiplicity of infection = 0.4) and incubated with shaking at 32°C until lysis (90–150 min). The lysates were centrifuged (6,000g) and filtered (0.2 μm) to remove cell debris. The remaining kinases were produced in HEK-293 cells and subsequently tagged with DNA for qRT-PCR detection. Streptavidin-coated magnetic beads were treated with biotinylated small molecule ligands for 30 min at RT to generate affinity resins for kinase assays. The liganded beads were blocked with excess biotin and washed with blocking buffer (1% BSA, 0.05% Tween 20, 1 mM DTT; SeaBlock [Pierce]) to remove unbound ligand and to reduce non-specific phage binding. Binding reactions were assembled by combining kinases, liganded affinity beads, and test compounds in 1x binding buffer (20% 0.17x PBS, 0.05% Tween 20, 6 mM DTT; SeaBlock). Test compounds were prepared as 100x stocks in 100% DMSO and directly diluted into the assay. All reactions were performed in polypropylene 384-well plates in a final volume of 0.02 ml. The assay plates were incubated at RT with shaking for 1 h and the affinity beads were washed with wash buffer (1x PBS, 0.05% Tween 20). […] The kinase concentration in the eluates was measured by qRT-PCR.

For experiment [1], the system named is SH-SY5Y neuroblastoma cells transfected with α-synuclein. The experiment in a line: In vitro autophagy assay (Abcam kit, flow cytometry). It is filed as cell-based, human. The conditions noted are these: 10 μM, vs DMSO. How it is done: To establish that treatment with BK40143 and BK40197 induces autophagy, human SH-SY5Y neuroblastoma cells were transfected with an α-synuclein plasmid before being treated with rapamycin/chloroquine as a positive control, DMSO as a negative control, or an ascending dose ([…]) of either BK40143 or BK40197 for 8 h. Cells were then harvested and treated using the Abcam Autophagy Assay kit, which uses a cationic amphiphilic tracer to stain autophagic vacuoles, before analysis via flow cytometry.
Human SH-SY5Y neuroblastoma cells were grown and cultured in F12 media with 10% fetal bovine serum, 1% L-glutamine, and 1% pen/strep at normal atmospheric conditions (37°C, 21% O2, 5% CO2). Upon reaching 50–70% confluence, cells were transduced with a lentivirus containing an alpha-synuclein plasmid and allowed to grow for 8 h. Cells were then treated with an ascending dose (100 nM–10 μM) of BK40143 or BK40197, or DMSO or rapamycin/chloroquine overnight before being harvested and treated with the Abcam Autophagy Assay kit (cat. #ab139484) according to manufacturer’s protocols. Cells were then resuspended in cell staining buffer before being analyzed on a Becton Dickinson LSRFortessas flow cytometer.
On the technique in general: In flow cytometry, cells or beads pass a laser one at a time.

Experiment [2] relates to microglial PAR2-tryptase interactions in TgAPP mice. As to the kind of experiment: Proximity ligation assay PAR2-tryptase. It is filed as in vivo, mouse. The settings on record: vs DMSO. How it is done:
Slides containing two consecutive brain slices were blocked in Duolink blocking solution for 1 h in a slide chamber containing water at 37°C. Blocking solution was then removed and PAR2 (1:250) and tryptase (1:250) primary antibodies were added at the concentrations specified above and incubated at 4°C overnight. The next day, primaries were removed and slides were washed twice for 5 min in wash buffer before addition of plus and minus probes for incubation at 37°C in a humid chamber for 1 h. Slides were then washed again twice for 5 min in wash buffer before addition of ligation buffer for incubation at 37°C in a humid chamber for 30 min. Next, slides were washed twice for 5 min in wash buffer, and polymerase was added for incubation at 37°C in a humid chamber for 100 min. Finally, slides were washed twice for 10 min in wash buffer and mounted using DAPI mounting medium and a glass coverslip. Slides were imaged on a Leica Dmi8 light microscope.

In general, inhibition refers to the relative decrease from the control value, in per cent. On to `Cc1cccc(-c2cc3nccc(N4CCOCC4)c3s2)c1` [BK40197], for which, at MTOR, the inhibition at 10 µM worked out at 90.7% and the remaining binding at 10 µM is 9.3%. The “labelled cells (autophagic vacuoles), induction of autophagy” value in experiment [1] is given as “significant increases in labelled cells”. Moreover, the “mast cell tryptase / microglial PAR2-tryptase interactions (proximity ligation)” value in experiment [2] is “reduced mast cell mediators such as tryptase”.
The like results for `Cc1cccc(-c2cc3nccc(Nc4ccccc4)c3s2)c1` [BK40143] were, in that order, 0%, 100%, “significant increases in labelled cells” and “reduced mast cell mediators such as tryptase”.
